Experimental data: patent US20110189204A1, “Treatment of Disease with Proteasone Inhibitors” (priority 2009, published 2011)

Columns and labels:
[1] = tested on: 20S proteasome (chymotryptic activity) in whole blood; experiment: 20S proteasome inhibition in whole blood, bi-weekly/weekly dosing (TOX7345); type: in vivo, Cynomolgus monkeys
Experimental: For each study, the 20S proteasome activity in whole blood was determined, as described in Lightcap, Clin. Chem., 46:673 (2000). The chymotryptic activity was assayed by measuring the rate at which the proteasome hydrolyzed an amide bond in a small fluorescence tagged polypeptide substrate. The specific activity (Spa) was normalized to the amount of protein present in the lysate.

[2] = Plasma pharmacokinetics, daily (5/7 days) subcutaneous dosing (TOX8394)
in vivo [3] = conditions: both, cynomolgus monkey, plasma
in vivo [4] = experiment: in vivo
Experimental: For each study group, the following toxicological screening was performed: mortality, body weight, food consumption, clinical observations, ophthalmology, electrocardiography, hematology, serum biochemistry, urinalysis, injection site evaluations (erythema and edema), neurological examinations, histology, and peripheral neuropathy.

[5] = day 1, 0.075 mg/kg sc bi-weekly
[6] = day 32, 0.075 mg/kg sc bi-weekly
[7] = day 74, 0.075 mg/kg sc bi-weekly

Question: With `CC(C)C[C@H](NC(=O)[C@H](Cc1ccccc1)NC(=O)c1cnccn1)B(O)O` [bortezomib] as the molecule, how does the AUE0-24 h [1, 5] read?
Answer: 585 (87) % Inhibition · time

Question: And the “Emax (% proteasome inhibition)” value [1, 5]?
Answer: 63%

Question: And the “Tmax (time of occurrence of Emax)” value [1, 5]?
Answer: 30 min

Question: What about the AUE0-24 h ([1]; day 1, 0.1 mg/kg sc bi-weekly) of the same molecule?
Answer: 926 (99) % Inhibition · time

Question: What about the “Emax (% proteasome inhibition)” value ([1]; day 1, 0.1 mg/kg sc bi-weekly) of the same molecule?
Answer: 74%

Question: And the “Tmax (time of occurrence of Emax)” value ([1]; day 1, 0.1 mg/kg sc bi-weekly)?
Answer: 30 min

Question: What about the AUE0-24 h ([1]; day 1, 0.166 mg/kg sc weekly) of the same molecule?
Answer: 931 (124) % Inhibition · time

Question: And the “Emax (% proteasome inhibition)” value ([1]; day 1, 0.166 mg/kg sc weekly)?
Answer: 78%

Question: What about the “Tmax (time of occurrence of Emax)” value ([1]; day 1, 0.166 mg/kg sc weekly) of the same molecule?
Answer: 60 min

Question: What about the AUE0-24 h [1, 6] of the same molecule?
Answer: 1086 (158) % Inhibition · time

Question: And the “Emax (% proteasome inhibition)” value [1, 6]?
Answer: 68%

Question: What about the “Tmax (time of occurrence of Emax)” value [1, 6] of the same molecule?
Answer: 30 min

Question: What about the AUE0-24 h ([1]; day 32, 0.1 mg/kg sc bi-weekly) of the same molecule?
Answer: 1454 (201) % Inhibition · time

Question: What about the “Emax (% proteasome inhibition)” value ([1]; day 32, 0.1 mg/kg sc bi-weekly) of the same molecule?
Answer: 71%

Question: What about the “Tmax (time of occurrence of Emax)” value ([1]; day 32, 0.1 mg/kg sc bi-weekly) of the same molecule?
Answer: 30 min

Question: What about the AUE0-24 h ([1]; day 50, 0.166 mg/kg sc weekly) of the same molecule?
Answer: 2152 (222) % Inhibition · time

Question: And the “Emax (% proteasome inhibition)” value ([1]; day 50, 0.166 mg/kg sc weekly)?
Answer: 78%

Question: And the “Tmax (time of occurrence of Emax)” value ([1]; day 50, 0.166 mg/kg sc weekly)?
Answer: 30 min

Question: And the AUE0-24 h [1, 7]?
Answer: 1111 (116) % Inhibition · time

Question: What about the “Emax (% proteasome inhibition)” value [1, 7] of the same molecule?
Answer: 67%

Question: What about the “Tmax (time of occurrence of Emax)” value [1, 7] of the same molecule?
Answer: 30 min

Question: What about the AUE0-24 h ([1]; day 74, 0.1 mg/kg sc bi-weekly) of the same molecule?
Answer: 1584 (210) % Inhibition · time

Question: What about the “Emax (% proteasome inhibition)” value ([1]; day 74, 0.1 mg/kg sc bi-weekly) of the same molecule?
Answer: 72%

Question: And the “Tmax (time of occurrence of Emax)” value ([1]; day 74, 0.1 mg/kg sc bi-weekly)?
Answer: 30 min

Question: And the AUE0-24 h ([1]; day 78, 0.166 mg/kg sc weekly)?
Answer: 1468 (219) % Inhibition · time

Question: What about the “Emax (% proteasome inhibition)” value ([1]; day 78, 0.166 mg/kg sc weekly) of the same molecule?
Answer: 77%

Question: And the “Tmax (time of occurrence of Emax)” value ([1]; day 78, 0.166 mg/kg sc weekly)?
Answer: 60 min

Question: And the “time of maximal proteasome inhibition after dosing” value ([1]; on average, sc administration)?
Answer: about 0.5 h

Question: And the maximal inhibition ([1]; weekly 0.166 mg/kg dose group)?
Answer: 78%

Question: What about the Tmax ([2]; day 3, 0.0166 mg/kg sc daily (5/7 days)) of the same molecule?
Answer: 0.138 (0.05) h

Question: What about the Tmax ([2]; day 3, 0.0333 mg/kg sc daily (5/7 days)) of the same molecule?
Answer: 0.165 (0.07) h

Question: What about the Tmax ([2]; day 3, 0.05 mg/kg sc daily (5/7 days)) of the same molecule?
Answer: 0.203 (0.07) h

Question: And the Tmax ([2]; day 54, 0.0166 mg/kg sc daily (5/7 days))?
Answer: 0.161 (0.07) h

Question: What about the Tmax ([2]; day 54, 0.0333 mg/kg sc daily (5/7 days)) of the same molecule?
Answer: 0.184 (0.07) h

Question: What about the Tmax ([2]; day 54, 0.05 mg/kg sc daily (5/7 days)) of the same molecule?
Answer: 0.185 (0.07) h

Question: What about the Tmax (in vivo [3]; Cynomolgus, subcutaneous) of the same molecule?
Answer: ≤ 15 min

Question: What about the Cmax (in vivo [3]; sc, 0.0166 mg/kg) of the same molecule?
Answer: 10.7 ng/mL

Question: And the Tmax (in vivo [3]; sc, 0.0166 mg/kg)?
Answer: 8.88 min

Question: What about the Cmax (in vivo [3]; sc, 0.0333 mg/kg) of the same molecule?
Answer: 23.7 ng/mL

Question: And the Tmax (in vivo [3]; sc, 0.0333 mg/kg)?
Answer: 6.96 min

Question: What about the Cmax (in vivo [3]; sc, 0.05 mg/kg) of the same molecule?
Answer: 34.2 ng/mL

Question: And the Tmax (in vivo [3]; sc, 0.05 mg/kg)?
Answer: 12 min

Question: What about the Kidney weights (in vivo [4]; 0.05 mg/kg/dose, all monkeys) of the same molecule?
Answer: greater than kidney weights of control monkeys

Question: And the “Injection site histopathological finding” value (in vivo [4]; 0.05 mg/kg/dose, male and female)?
Answer: fibroplasia

Question: What about the “Peripheral neuropathy: peripheral (sciatic, tibial and peroneal nerves) degeneration” value (in vivo [4]; 0.0333-0.05 mg/kg) of the same molecule?
Answer: peroneal nerves): minimal

Question: What about the “Peripheral neuropathy: spinal cord dorsal funiculi (cervical & lumbar)” value (in vivo [4]; 0.0333-0.05 mg/kg) of the same molecule?
Answer: & lumbar) minimal degeneration

Question: And the “Clinical observations: faeces” value (in vivo [4]; 0.0333 or 0.05 mg/kg)?
Answer: Abnormal faeces (soft, liquid, 0.0333

Question: What about the MTD at 8 weeks (in vivo [4]; both, cynomolgus monkey, in vivo) of the same molecule?
Answer: ~0.05 mg/kg

Question: And the Body weight (in vivo [4]; cynomolgus monkey, in vivo)?
Answer: No body weight loss at any other

Question: And the “ECG, ophthalmology, rectal temperature or blood pressure” value (in vivo [4]; cynomolgus monkey, in vivo)?
Answer: No bortezomib-related changes

Question: And the Electrocardiography (in vivo [4]; cynomolgus monkey, in vivo)?
Answer: No abnormalities found at any dose

Question: And the Fibrinogen concentrations (in vivo [4]; cynomolgus monkey, in vivo)?
Answer: fibrinogen concentrations increased

Question: And the “Gross abnormalities at necropsy” value (in vivo [4]; cynomolgus monkey, in vivo)?
Answer: no gross abnormalities

Question: What about the “Haemathology: mean platelet volume” value (in vivo [4]; cynomolgus monkey, in vivo) of the same molecule?
Answer: mean platelet volume increased

Question: And the “Haemathology: platelet numbers” value (in vivo [4]; cynomolgus monkey, in vivo)?
Answer: Platelet numbers decreased

Question: And the “Histology: BONE MARROW” value (in vivo [4]; cynomolgus monkey, in vivo)?
Answer: BONE MARROW: no findings

Question: What about the “Histology: LYMPH NODES” value (in vivo [4]; cynomolgus monkey, in vivo) of the same molecule?
Answer: LYMPH NODES: no findings

Question: And the “Histology: SPLEEN” value (in vivo [4]; cynomolgus monkey, in vivo)?
Answer: SPLEEN: no findings

Question: And the Ophthalmology (in vivo [4]; cynomolgus monkey, in vivo)?
Answer: No treatment related changes

Question: What about the Urinalysis (in vivo [4]; cynomolgus monkey, in vivo) of the same molecule?
Answer: No treatment related findings

Question: And the “Urinalysis parameters creatinine, inorganic phosphorus, ketones, protein and sodium” value (in vivo [4]; cynomolgus monkey, in vivo)?
Answer: Increases

Question: And the Tolerability (in vivo [4]; cynomolgus monkey, in vivo, sc)?
Answer: well tolerated

Question: And the Stool (in vivo [4]; multiple days, one male each at 0.0166 and 0.0333, one female at 0.05 mg/kg/dose)?
Answer: Soft stool

Question: What about the Body weight lost (in vivo [4]; nine male and female monkeys in the 0.0333 and 0.05 mg/kg/dose groups) of the same molecule?
Answer: 3-12%

Question: What about the “No Observed Adverse Effect Level (NOAEL)” value (in vivo [4]; repeated five times weekly sc administration for 8 weeks) of the same molecule?
Answer: cannot be identified
